# Experimental data: patent US8048915B2, “Biologically active complex” (BioMas Ltd., priority 2001, dated 2011)
# Read-outs that look alike come from different tables or passages of the source.
# System: IL-2
# Conditions: 72 hours culture, 50% supernatant on CTLD cells
# From the text: Culture supernatants were collected, centrifuged and tested for IL-2 activity by using 50% of the volume of the supernatant assaying their ability to support the proliferation of the IL-2 dependent cell line CTLD.
smiles,measurement,setting,value
"Cl[Te]1(Cl)(Cl)OCCO1.N [Example 1, equimolar complex of TeO2 and ethylene glycol, NH4Cl salt]","IL-2 activity, Counts per minute",1 ng,"11,000 Counts per minute"
same,"IL-2 activity, Counts per minute",10 ng,"1,500 Counts per minute"
same,"IL-2 activity, Counts per minute",1 μg,250 Counts per minute
same,"IL-2 activity, Counts per minute",100 μg,280 Counts per minute
